Measured values published in US20240270748A1 (Merck Patent GmbH, priority 2021, published 2024).

Experiments:
[1] = system: NCI-H226 human mesothelioma tumor cells; assay: NCI-H226 in vivo efficacy study; conditions: H2d Rag2 female mice, subcutaneous NCI-H226 tumors, po qd for 29 days
Procedure: NCI-H226 In Vivo Efficacy Study
7-9-week-old H2d Rag2 female mice (own breeding, Taconic-Denmark) were inoculated subcutaneously with 5×10^6 NCI-H226 human mesothelioma tumor cells in the right flank. Tumor growth and body weight was measured twice weekly using caliper. Tumor volume was calculated using the formula TV=L×W×W/2.
When tumor volume reached approximately 75-150 mm^3, animals were randomized (Day 0) into treatment groups (n=9-10/group) and treated perorally (po) once daily (qd) for 29 days with either vehicle (20% hydroxypropyl β-cyclodextrin in 50 mM PBS pH 7.4) or Compound no. 2. Compound no. 2 was tested at dosing levels of 1, 3, 10, 30, and 100 mg/kg, respectively. Results are depicted in FIG. 1 (tumor growth over time for vehicle group and each dosage group) and FIG. 2 (final tumor volume of vehicle group and each dosage group).
Statistical analysis of tumor volumes between treatment groups was done using repeated measures analysis of covariance (RM-ANCOVA) in a linear mixed effects model followed by least-squares means pairwise comparisons.
The animal experiment was performed under regulation of the German animal welfare act and in accordance with the EU laboratory animal directive for the area of animal experiments.

YAP-TEAD interaction = assay: SK-HEP-1 reporter assay (8xTEAD responsive elements driving NanoLuc luciferase); assay type: cell-based; conditions: Homo sapiens, SK-HEP1, SK-HEP-1 reporter assay
Procedure, shortened: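 Reporter read-out: NanoLuc luminescence from 8×TEAD elements stably integrated in SK-HEP-1 cells, after 24 h compound exposure at 37° C. Ten concentrations tested in duplicate, top 30 μM final, 0.3% DMSO; IC50 from curve.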

SW620 Yap KO cells = assay: Viability assay in SW620 Yap KO (Yap independent) cells, CyQuant; assay type: cell-based; conditions: Homo sapiens, SW-620, 96 h
Procedure, shortened: (§1)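 Seeded cells were dosed 24 h later in duplicate (10-point, 1:3 dilutions, top 30 μM final, 0.3% DMSO) and incubated 96 h at 37 °C. Viability was read with CyQUANT DNA dye after 1 h, fluorescence bottom read. NCI-H226 in RPMI 1640 medium; SW620 YAP/TAZ CRISPR knockout in DMEM/F-12 medium.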

NCI-H226 cells = assay: Viability assay in NCI-H226 (Yap-dependent) cells, CyQuant; assay type: cell-based, human; conditions: Homo sapiens
Procedure, shortened: as §1

[2] = n.d. = value not detectable below threshold given in parentheses, ND = not determinable within the entire range
[3] = n.d. = value not detectable below threshold given in parentheses

melting point	IC50 (YAP-TEAD interaction; class symbols)	IC50 (NCI-H226 cells; NCI-H226, 96 h, class symbols)	Compound	other results
169 to 171 °C			Cc1nc2c(s1)c1cc(C(=O)O)ccc1n2-c1ccc(C(F)(F)F)cc1 [Example 25, 2-methyl-4-[4-(trifluoromethyl)phenyl]-[1,3]thiazolo[4,5-b]indole-7-carboxylic acid]	
			Cn1cc2c3cc(C(=O)O)ccc3n(-c3ccc(C(F)(F)F)cc3)c2n1 [Example 2, 2-methyl-8-[4-(trifluoromethyl)phenyl]-2H,8H-pyrazolo[3,4-b]indole-5-carboxylic acid]	dosing levels showing maximal inhibition of tumor growth [1]: > 10 mg/kg; tumor growth inhibition compared to vehicle treated group ([1]; all tested dosing levels 1, 3, 10, 30, 100 mg/kg, p-value <0.001): Significant tumor growth inhibition
179 to 181 °C			CCOc1ccc(-n2c3ccc(C(=O)O)cc3c3cn(C)nc32)cc1 [Example 15, 8-(4-Ethoxyphenyl)-2-methyl-2H,8H-pyrazolo[3,4-b]indole-5-carboxylic acid]	
232 to 234 °C	10 to 100 nM	> 10000 nM	C[C@@H](CO)NS(=O)(=O)c1ccc2c(c1)c1nnn(C)c1n2-c1ccc(C(F)(F)F)cc1 [Example 38, N-[(2S)-1-hydroxypropan-2-yl]-3-methyl-4-[4-(trifluoromethyl)phenyl]-3H,4H-[1,2,3]triazolo[4,5-b]indole-7-sulfonamide]	IC50 (SW620 Yap KO cells; class symbols): > 30000 nM
111 to 112 °C			COC(=O)c1ccc2c(c1)c1nn(C)cc1n2-c1ccc(C(F)(F)F)cc1 [Example 16, Methyl 2-methyl-4-[4-(trifluoromethyl)phenyl]pyrazolo[4,3-b]indole-7-carboxylate]	
300 °C			Cn1cc2c3cc(C(=O)NC4CC4)ccc3n(-c3ccc(C(F)(F)F)nc3)c2n1 [Example 27, N-cyclopropyl-2-methyl-8-[6-(trifluoromethyl)pyridin-3-yl]-2H,8H-pyrazolo[3,4-b]indole-5-carboxamide]	
208 to 210 °C			Cn1cc2c(n1)c1cc(C#N)ccc1n2-c1ccc(C(F)(F)F)cc1 [Example 19, 2-methyl-4-[4-(trifluoromethyl)phenyl]pyrazolo [4,3-b]indole-7-carbonitrile]	
181 to 185 °C			Cn1cc2c3cc(C(=O)NCc4ccncc4)ccc3n(-c3ccc(C(F)(F)F)cc3)c2n1 [Example 28, 2-methyl-N-[(pyridin-4-yl)methyl]-8-[4-(trifluoromethyl)phenyl]-2H, 8H-pyrazolo[3,4-b]indole-5-carboxamide]	
185 to 187 °C			C=CC(=O)NCc1ccc2c(c1)c1cn(C)nc1n2-c1ccc(C(F)(F)F)cc1 [Example 21, N-([2-methyl-8-[4-(trifluoromethyl)phenyl]pyrazolo [3,4-b]indol-5-yl]methyl)prop-2-enamide]	
110 to 111 °C			Cn1cc2c3cc(C(=O)O[C@@H]4O[C@H](C(=O)O)[C@@H](O)[C@H](O)[C@H]4O)ccc3n(-c3ccc(C(F)(F)F)cc3)c2n1 [Example 30, (2S,3S,4S,5R,6S)-3,4,5-trihydroxy-6-{2-methyl-8-[4-(trifluoromethyl)phenyl]-2H,8H-pyrazolo[3,4-b]indole-5-carbonyloxy}oxane-2-carboxylic acid]	
223 to 224 °C			C=CC(=O)Nc1ccc2c(c1)c1cn(C)nc1n2-c1ccc(C(F)(F)F)cc1 [Example 20, N-[2-methyl-8-[4-(trifluoromethyl)phenyl]pyrazolo[3,4-b]indol-5-yl]prop-2-enamide]	
	10 to 100 nM	1 to 100 nM	Cn1nc2c3cc(C(=O)N=[S@](=O)(CCO)Cc4ccccn4)ccc3n(-c3ccc(C(F)(F)F)cc3)c2n1 (single isomer, unassigned) [Example C161]	IC50 (SW620 Yap KO cells; [2]): > 3000 nM
	10 to 100 nM	1 to 100 nM	C[C@@H](NC(=O)c1ccc2c(c1)c1nn(C)nc1n2-c1ccc(C(F)(F)F)cc1)c1ccncc1 [Example C180, 2-methyl-N-[(1R)-1-(pyridin-4-yl)ethyl]-4-[4-(trifluoromethyl)phenyl]-2H,4H-[1,2,3]triazolo[4,5-b]indole-7-carboxamide]	IC50 (SW620 Yap KO cells; [3]): > 30000 nM
	10 to 100 nM		Cn1cc2c3cc(C(=O)O)ccc3n(C34CC(C(F)(F)F)(C3)C4)c2n1 [Example C28, 2-methyl-8-[3-(trifluoromethyl)-bicyclo[1.1.1]pentan-1-yl]-2H,8H-pyrazolo[3,4-b]indole-5-carboxylic acid]	IC50 (SW620 Yap KO cells; [2]): > 30000 nM; IC50 (NCI-H226 cells; NCI-H226, 96 h, n.d. = value not detectable below threshold given in parentheses): > 10000 nM
		100 to 1000 nM	Cn1cc2c3cc(C(=O)N=[S@@](=O)(CCO)Cc4ccccn4)ccc3n(-c3ccc(C(F)(F)F)cc3)c2n1 (single isomer, unassigned) [Example C177]	IC50 (YAP-TEAD interaction; [3]): > 6500 nM; IC50 (SW620 Yap KO cells; [3]): > 3000 nM
	10 to 100 nM	1 to 100 nM	C[C@H](CO)NC(=O)c1ccc2c(c1)c1cn(C)nc1n2-c1ccc(C(F)(F)F)cn1 [Example C148, N-[(2R)-1-hydroxypropan-2-yl]-2-methyl-8-[5-(trifluoromethyl)pyridin-2-yl]-2H,8H-pyrazolo[3,4-b]indole-5-carboxamide]	IC50 (SW620 Yap KO cells; [2]): > 30000 nM
	10 to 100 nM	1 to 100 nM	Cn1cc2c3cc(C(=O)O)ccc3n(-c3ccc(C(F)(F)F)c(F)c3)c2n1 [Example C164, 8-[3-fluoro-4-(trifluoromethyl)phenyl]-2-methyl-2H,8H-pyrazolo[3,4-b]indole-5-carboxylic acid]	IC50 (SW620 Yap KO cells; [3]): > 30000 nM
	10 to 100 nM	100 to 1000 nM	C[C@@H](NC(=O)c1ccc2c(c1)c1cn(C)nc1n2-c1ccc(C(F)(F)F)cc1)c1ccncc1 [Example C122, 2-methyl-N-[(1R)-1-(pyridin-4-yl)ethyl]-8-[4-(trifluoromethyl)phenyl]-2H,8H-pyrazolo[3,4-b]indole-5-carboxamide]	IC50 (SW620 Yap KO cells; [2]): > 30000 nM

Compound	melting point	IC50 (YAP-TEAD interaction; class symbols)	IC50 (NCI-H226 cells; NCI-H226, 96 h, class symbols)	other results
Cn1cc2c3cc(CNC(=O)CCl)ccc3n(-c3ccc(C(F)(F)F)cc3)c2n1 [Example 24, 2-chloro-N-([2-methyl-8-[4-(trifluoromethyl)phenyl]pyrazolo[3,4-b]indol-5-yl]methyl)acetamide]	221 to 222 °C	100 to 10000 nM		IC50 (SW620 Yap KO cells; class symbols): 1000 to 10000 nM; IC50 (NCI-H226 cells; 96 h, class symbols): 100 to 1000 nM
